Data as given in ChEMBL document CHEMBL4418492, “Myc modulators and uses thereof” (2018).

What was measured:
[1] = system: NCI-H1975; assay: Cytotoxicity against human NCI-H1975 cells assessed as decrease in cell viability incubated for 72 hrs by CellTiter-Glo assay; assay type: functional, cell-based; details: NCI-H1975, 72 h
[2] = molecular target: T1, Myc proto-oncogene protein (Homo sapiens, UniProt P01106); assay: Inhibition of Myc (unknown origin) expressed in HEK293T cells incubated for 16 hrs by firefly/renilla luciferase reporter gene assay; assay type: cell-based
T1 sequence (P01106 whole entry): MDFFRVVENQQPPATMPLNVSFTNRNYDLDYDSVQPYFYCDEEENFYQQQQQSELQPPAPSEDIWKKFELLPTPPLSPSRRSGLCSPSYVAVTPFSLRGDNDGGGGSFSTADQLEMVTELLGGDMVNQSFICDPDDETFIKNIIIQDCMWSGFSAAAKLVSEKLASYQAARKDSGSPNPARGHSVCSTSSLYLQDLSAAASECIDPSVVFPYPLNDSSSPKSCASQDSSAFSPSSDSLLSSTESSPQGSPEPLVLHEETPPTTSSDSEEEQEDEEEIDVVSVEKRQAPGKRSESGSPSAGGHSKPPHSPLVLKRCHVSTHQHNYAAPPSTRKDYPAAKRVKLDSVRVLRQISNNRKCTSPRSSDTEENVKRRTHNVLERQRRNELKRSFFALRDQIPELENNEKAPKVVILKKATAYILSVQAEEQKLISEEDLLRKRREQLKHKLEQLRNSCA

[3] = system: HeLa; assay: Cytotoxicity against human HeLa cells assessed as decrease in cell viability incubated for 72 hrs by CellTiter-Glo assay; assay type: functional, cell-based
[4] = molecular target: T1, Myc proto-oncogene protein; assay: Binding affinity to Myc in cell lysates (unknown origin) assessed as c-Myc levels at 1 uM incubated using compound 19 beads by Western blotting based pull down assay relative to control; assay type: subcellular; details: Lysate
[5] = molecular target: T1, Myc proto-oncogene protein; assay: Binding affinity to Myc in cell lysates (unknown origin) assessed as c-Myc levels at 5 uM incubated using compound 55 beads by Western blotting based pull down assay relative to control; assay type: subcellular; details: Lysate
[6] = Cytotoxicity against human KLP1 cells assessed as decrease in cell viability incubated for 72 hrs by CellTiter-Glo assay; assay type: functional, cell-based
[7] = Cytotoxicity against human SNUC5 cells assessed as decrease in cell viability incubated for 72 hrs by CellTiter-Glo assay; assay type: functional, cell-based
[8] = molecular target: T1, Myc proto-oncogene protein; assay: Binding affinity to Myc in cell lysates (unknown origin) assessed as c-Myc levels at 5 uM incubated using compound 19 beads by Western blotting based pull down assay relative to control; assay type: subcellular; details: Lysate
[9] = system: NAMALVA; assay: Cytotoxicity against human NAMALWA cells assessed as decrease in cell viability incubated for 72 hrs by CellTiter-Glo assay; assay type: functional, cell-based
[10] = system: Lymphoma cell line; assay: Cytotoxicity against mouse E-mu-Myc lymphoma cells assessed as decrease in cell viability incubated for 72 hrs by CellTiter-Glo assay; assay type: functional, cell-based

In the case of `O=C(CCCC[C@@H]1SC[C@@H]2NC(=O)N[C@@H]21)NCCCN1C(=O)S/C(=C\c2ccc(Sc3nc4ccccc4[nH]3)o2)C1=O`, the IC50 [1] is reported as > 50 µM.

For `O=C(c1ccc(Sc2nc3ccccc3[nH]2)o1)N1CCOCC1`, the IC50 [2] was “Not Active”.

In the case of `O=C1NC(=O)C(=Cc2ccc(Sc3nc4ccccc4[nH]3)o2)C(=O)N1`, the IC50 [2] is reported as “Not Active”.

In the case of `COC(=O)c1ccc(Sc2nc3ccccc3[nH]2)o1`, the IC50 [2] is reported as “Not Active”.

For `O=C(O)CN1C(=O)S/C(=C\c2ccc(Sc3nc4ccccc4[nH]3)o2)C1=O`, the IC50 [2] was “Not Active”.

`CC(C)N1C(=O)S/C(=C\c2ccc(Sc3nc4ccccc4[nH]3)o2)C1=O` showed an IC50 [1] of 2.71 to 24.9 µM, an IC50 [3] of 3.32 µM and an Activity [4] of 91%. For the same compound, the Activity [5] was 52%, the IC50 [6] was 4.64 µM and the IC50 [7] was 11.7 µM. It also gave an Activity [8] of 73 to 84% and an IC50 [9] of 17.3 to 21.1 µM.

With `O=C(O)c1ccc(Sc2nc3ccccc3[nH]2)o1` the IC50 [2] was “Not Active”.

In the case of `CC(C)N1C(=O)S/C(=C\c2ccc(-c3nc4ccccc4[nH]3)o2)C1=O`, the IC50 [10] is reported as > 50 µM, the IC50 [1] is reported as 45.3 µM and the IC50 [9] is reported as 20.1 µM.
